From patent publication EP1337551B1, “SUBSTANCE P ANALOGS FOR THE TREATMENT OF CANCER” (DABUR PHARMA LTD., priority 2000, dated 2002)
Residues, ends and D or L forms follow the SMILES beside them.

Experiments:
[1] = test system: U373 (glioblastoma); experiment: In vitro cytotoxic activity, MTT assay, 72 hours; format: cell-based, human
Method: (§1) The cytotoxic activity of synthesized peptides was tested on six human tumor cell lines namely MCF7 (breast), U373 (glioblastoma), PTC, (colon), L132 (lung), Su.86.86 (pancreas), and KB (oral). The tumor cells were collected at exponential growth phase and resuspended in medium (1.5 x 10^6 cells/ml in RPMI 1640 containing 10% FBS). 150µL of medium was added to the wells of a 96-well tissue culture plate (Nunc, Denmark) followed by 30µl of cell suspension. The plate was left in an incubator (37°C, 5% CO2) overnight. 20µl of the peptide (100 pM to 10 µM concentration) was added to marked wells of the 96-well plate. Each concentration was plated in triplicate. 20µl of medium alone was added to control wells while wells without cells served as blanks. A total volume of 200µL was ensured in each well and plate was left in incubator (37°C, 5% CO2). After 72 hours of incubation an MTT assay was performed and percentage cytotoxicity was calculated with respect to control cells.

[2] = test system: PTC, (colon); experiment: In vitro cytotoxic activity, MTT assay, 72 hours; format: cell-based, human
Method: as §1

[3] = test system: Su.86.86 (pancreas); experiment: In vitro cytotoxic activity, MTT assay, 72 hours; format: cell-based, human
Method: as §1

[4] = test system: L132 (lung); experiment: In vitro cytotoxic activity, MTT assay, 72 hours; format: cell-based, human
Method: as §1

[5] = test system: MCF7 (breast); experiment: In vitro cytotoxic activity, MTT assay, 72 hours; format: cell-based, human
Method: as §1

[6] = test system: KB (Oral squamous); experiment: In vitro cytotoxic activity of lipo conjugates, MTT assay, 48 hours; format: cell-based
Method: (§2) The cytotoxic effect of lipo-conjugates of substance P analogs SEQ ID NO: 6, SEQ ID NO: 7 and SEQ ID NO: 8, was studied by MTT assay which is based on the principle of uptake of MTT [3-[4,5-dimethylthiazol-2-yl]-2,5-diphenyl tetrazolium bromide], a tetrazolium salt by the metabolically active cells where it is metabolized by active mitochondria in to a blue colored formazan product which can be read spectrophotometrically. Briefly, tumor cells - KB (Oral squamous), U87MG (Blioblastoma), HBL100 (Breast), HeP2 (Larngeal), ECV304 (Endothelial), PA-1 (Ovary) and L132 (Lunng) were incubated with the peptide analogs for 48 hours at 37°C in a 96-well culture plate, followed by the addition of 100 µg MTT and further incubation of 1 hour. The formazan crystals formed inside the cells were dissolved with a detergent comprising of 10% Sodium dodecyl sulfate and 0.01 N HCl and optical density read on a multiscan ELISA reader. The optical density was directly proportional to the number of proliferating and metabolically active cells. SEQ ID NO: 6

[7] = test system: ECV304 (Endothelial); experiment: as above; format: cell-based
Method: as §2

[8] = test system: L132 (Lunng); experiment: as above; format: cell-based
Method: as §2

[9] = test system: HeP2 (Larngeal); experiment: as above; format: cell-based
Method: as §2

[10] = test system: U87MG (Blioblastoma); experiment: as above; format: cell-based
Method: as §2

[11] = test system: HBL100 (Breast); experiment: as above; format: cell-based
Method: as §2

[12] = test system: PA-1 (Ovary); experiment: as above; format: cell-based
Method: as §2

In the case of `CC(C)C[C@H](NC(=O)[C@@H](Cc1c[nH]c2ccccc12)NC(=O)[C@H](Cc1ccccc1)NC(=O)[C@@H](Cc1c[nH]c2ccccc12)NC(=O)[C@H](CCC(N)=O)NC(=O)[C@@H](Cc1ccccc1)NC(=O)[C@@H]1CCCN1C(=O)[C@H](CCCCN)NC(=O)[C@@H]1CCCN1C(=O)[C@H](N)CCCNC(=N)N)C(=O)NC1(C(N)=O)CCCC1` [SEQ ID NO: 5, D-Arg-Pro-Lys-Pro-D-Phe-Gln-D-Trp-Phe-D-Trp-Leu-Ac5c-NH2] (HELM PEPTIDE1{[dR].P.K.P.[dF].Q.[dW].F.[dW].L.[O=C(C1(N[*:1])CCCC1)[*:2]].[am]}$$$$V2.0), the “Percentage cytotoxicity at different concentrations” value ([1]; 100pM) is reported as 3.7± 0.5%, the “Percentage cytotoxicity at different concentrations” value ([1]; 1nM) is reported as 3.1 ± 0.5% and the “Percentage cytotoxicity at different concentrations” value ([1]; 10nM) is reported as 5.0 ± 0.7%. The “Percentage cytotoxicity at different concentrations” value ([1]; 100nM) was 4.5 ± 0.5%, the “Percentage cytotoxicity at different concentrations” value ([1]; 1µM) was 17.06 ± 1.9% and the “Percentage cytotoxicity at different concentrations” value ([1]; 10µM) was 37.2 ± 5.3%. For the same compound, the “Percentage cytotoxicity at different concentrations” value ([2]; 100pM) was “Nil”, the “Percentage cytotoxicity at different concentrations” value ([2]; 1nM) was 3.1 ± 0.5% and the “Percentage cytotoxicity at different concentrations” value ([2]; 10nM) was 3.1 ± 1.9%. The “Percentage cytotoxicity at different concentrations” value ([2]; 100nM) was 6.7 ± 1.3%, the “Percentage cytotoxicity at different concentrations” value ([2]; 1µM) was 25.5 ± 4.8% and the “Percentage cytotoxicity at different concentrations” value ([2]; 10µM) was 35.5 ± 4.8%. For the same compound, the “Percentage cytotoxicity at different concentrations” value ([3]; Su8686, 100pM) was “Nil”, the “Percentage cytotoxicity at different concentrations” value ([3]; Su8686, 1nM) was 3 ± 0.3% and the “Percentage cytotoxicity at different concentrations” value ([3]; Su8686, 10nM) was 12 ± 2.8%. The “Percentage cytotoxicity at different concentrations” value ([3]; Su8686, 100nM) was 9 ± 3.8%, the “Percentage cytotoxicity at different concentrations” value ([3]; Su8686, 1µM) was 22 ± 3.3% and the “Percentage cytotoxicity at different concentrations” value ([3]; Su8686, 10µM) was 25 ± 4.3%. For the same compound, the “Percentage cytotoxicity at different concentrations” value ([4]; 100pM) was 18±3.4%, the “Percentage cytotoxicity at different concentrations” value ([4]; 1nM) was 15 ± 5.8% and the “Percentage cytotoxicity at different concentrations” value ([4]; 10nM) was 19 ± 3.3%. For the same compound, the “Percentage cytotoxicity at different concentrations” value ([4]; 100nM) was 21 ± 1.2%, the “Percentage cytotoxicity at different concentrations” value ([4]; 1µM) was 20 ± 2.3% and the “Percentage cytotoxicity at different concentrations” value ([4]; 10µM) was 23 ± 2.3%. For the same compound, the “Percentage cytotoxicity at different concentrations” value ([5]; MCF-7, 100pM) was “Nil”, the “Percentage cytotoxicity at different concentrations” value ([5]; MCF-7, 1nM) was 2.4 ± 1.2% and the “Percentage cytotoxicity at different concentrations” value ([5]; MCF-7, 10nM) was 7.5 ± 1.5%. For the same compound, the “Percentage cytotoxicity at different concentrations” value ([5]; MCF-7, 100nM) was 8.6 ± 1.6%, the “Percentage cytotoxicity at different concentrations” value ([5]; MCF-7, 1µM) was 12.4 ± 2.6% and the “Percentage cytotoxicity at different concentrations” value ([5]; MCF-7, 10µM) was 18.4 ± 6.4%.

For `CC(=O)N[C@H](CCCNC(=N)N)C(=O)N1CCC[C@H]1C(=O)N[C@@H](CCCCN)C(=O)N1CCC[C@H]1C(=O)N[C@H](Cc1ccccc1)C(=O)N[C@@H](CCC(N)=O)C(=O)N[C@H](Cc1c[nH]c2ccccc12)C(=O)N[C@@H](Cc1ccccc1)C(=O)N[C@H](Cc1c[nH]c2ccccc12)C(=O)N[C@@H](CC(C)C)C(=O)NC1(C(N)=O)CCCC1` [SEQ ID NO: 6, Acetyl-D-Arg-Pro-Lys-Pro-D-Phe-Gln-D-Trp-Phe-D-Trp-Leu-Ac5c-NH2] (HELM PEPTIDE1{[ac].[dR].P.K.P.[dF].Q.[dW].F.[dW].L.[O=C(C1(N[*:1])CCCC1)[*:2]].[am]}$$$$V2.0), the “Percentage cytotoxicity at different concentrations” value ([6]; 1nM) was 28.0 ± 2.3%, the “Percentage cytotoxicity at different concentrations” value ([6]; 10nM) was 29.0 ± 1.3% and the “Percentage cytotoxicity at different concentrations” value ([6]; 100nM) was 18.0 ± 2.6%. The “Percentage cytotoxicity at different concentrations” value ([6]; 1µM) was 2.0 ± 1.3%, the “Percentage cytotoxicity at different concentrations” value ([7]; 1nM) was 9.0 ± 3.7% and the “Percentage cytotoxicity at different concentrations” value ([7]; 10nM) was 13.8 ± 3.3%. The “Percentage cytotoxicity at different concentrations” value ([7]; 100nM) was 15.9 ± 2.3%, the “Percentage cytotoxicity at different concentrations” value ([7]; 1µM) was 12.9 ± 2.2% and the “Percentage cytotoxicity at different concentrations” value ([8]; 1nM) was 14.9 ± 2.9%. The “Percentage cytotoxicity at different concentrations” value ([8]; 10nM) was 24.7 ± 3.2%, the “Percentage cytotoxicity at different concentrations” value ([8]; 100nM) was 19.5 ± 4.6% and the “Percentage cytotoxicity at different concentrations” value ([8]; 1µM) was 19.7 ± 2.5%. For the same compound, the “Percentage cytotoxicity at different concentrations” value ([9]; 1nM) was 10.0 ± 3.2%, the “Percentage cytotoxicity at different concentrations” value ([9]; 10nM) was 14.8 ± 4.4% and the “Percentage cytotoxicity at different concentrations” value ([9]; 100nM) was 24.9 ± 1.5%. For the same compound, the “Percentage cytotoxicity at different concentrations” value ([9]; 1µM) was 13.8 ± 2.4%, the “Percentage cytotoxicity at different concentrations” value ([10]; 1nM) was 26.9 ± 3.5% and the “Percentage cytotoxicity at different concentrations” value ([10]; 10nM) was 32.9 ± 2.4%. For the same compound, the “Percentage cytotoxicity at different concentrations” value ([10]; 100nM) was 34.7 ± 1.9%, the “Percentage cytotoxicity at different concentrations” value ([10]; 1µM) was 31.8 ± 3.2% and the “Percentage cytotoxicity at different concentrations” value ([11]; 1nM) was 28.5 ± 4.5%. For the same compound, the “Percentage cytotoxicity at different concentrations” value ([11]; 10nM) was 28.4 ± 1.8%, the “Percentage cytotoxicity at different concentrations” value ([11]; 100nM) was 31.8 ± 1.5% and the “Percentage cytotoxicity at different concentrations” value ([12]; 1nM) was 8.0 ± 24%. For the same compound, the “Percentage cytotoxicity at different concentrations” value ([12]; 10nM) was 22.0 ± 3.4%, the “Percentage cytotoxicity at different concentrations” value ([12]; 100nM) was 25.4 ± 2.6% and the “Percentage cytotoxicity at different concentrations” value ([12]; 1µM) was 13.9 ± 3.3%.

For `CCCCCCCC(=O)N[C@H](CCCNC(=N)N)C(=O)N1CCC[C@H]1C(=O)N[C@@H](CCCCN)C(=O)N1CCC[C@H]1C(=O)N[C@H](Cc1ccccc1)C(=O)N[C@@H](CCC(N)=O)C(=O)N[C@H](Cc1c[nH]c2ccccc12)C(=O)N[C@@H](Cc1ccccc1)C(=O)N[C@H](Cc1c[nH]c2ccccc12)C(=O)N[C@@H](CC(C)C)C(=O)NC1(C(N)=O)CCCC1` [SEQ ID NO: 8, Octanoyl-D-Arg-Pro-Lys-Pro-D-Phe-Gln-D-Trp-Phe-D-Trp-Leu-Ac5c-NH2] (HELM PEPTIDE1{[CCCCCCCC(=O)[*:2]].[dR].P.K.P.[dF].Q.[dW].F.[dW].L.[O=C(C1(N[*:1])CCCC1)[*:2]].[am]}$$$$V2.0), the “Percentage cytotoxicity at different concentrations” value ([6]; 1nM) was 28.0 ± 3.5%, the “Percentage cytotoxicity at different concentrations” value ([6]; 10nM) was 29.0% and the “Percentage cytotoxicity at different concentrations” value ([6]; 100nM) was 23.0 ± 3.2%. For the same compound, the “Percentage cytotoxicity at different concentrations” value ([6]; 1µM) was 19.0 ± 4.3%, the “Percentage cytotoxicity at different concentrations” value ([7]; 1nM) was 16.9 ± 3.5% and the “Percentage cytotoxicity at different concentrations” value ([7]; 10nM) was 31.9 ± 3.3%. For the same compound, the “Percentage cytotoxicity at different concentrations” value ([7]; 100nM) was 24.6 ± 2.3%, the “Percentage cytotoxicity at different concentrations” value ([7]; 1µM) was 17.9 ± 2.4% and the “Percentage cytotoxicity at different concentrations” value ([8]; 1nM) was 11.9 ± 4.9%. For the same compound, the “Percentage cytotoxicity at different concentrations” value ([8]; 10nM) was 27.5 ± 3.5%, the “Percentage cytotoxicity at different concentrations” value ([8]; 100nM) was 16.9 ± 3.6% and the “Percentage cytotoxicity at different concentrations” value ([8]; 1µM) was 18.6 ± 2.4%. For the same compound, the “Percentage cytotoxicity at different concentrations” value ([9]; 1nM) was 12.5 ± 3.2%, the “Percentage cytotoxicity at different concentrations” value ([9]; 10nM) was 15.5 ± 4.4% and the “Percentage cytotoxicity at different concentrations” value ([9]; 100nM) was 24.9 ± 2.5%. For the same compound, the “Percentage cytotoxicity at different concentrations” value ([9]; 1µM) was 12.9 ± 3.4%, the “Percentage cytotoxicity at different concentrations” value ([10]; 1nM) was 23.9 ± 3.3% and the “Percentage cytotoxicity at different concentrations” value ([10]; 10nM) was 33.9 ± 2.2%. For the same compound, the “Percentage cytotoxicity at different concentrations” value ([10]; 100nM) was 28.9 ± 1.4%, the “Percentage cytotoxicity at different concentrations” value ([10]; 1µM) was 21.8 ± 3.4% and the “Percentage cytotoxicity at different concentrations” value ([11]; 1nM) was 9.0 ± 4.5%. The “Percentage cytotoxicity at different concentrations” value ([11]; 10nM) was 28.6 ± 3.8%, the “Percentage cytotoxicity at different concentrations” value ([11]; 100nM) was 30.6 ± 1.5% and the “Percentage cytotoxicity at different concentrations” value ([11]; 1µM) was 25.8 ± 1.4%. The “Percentage cytotoxicity at different concentrations” value ([12]; 1nM) was 22.1 ± 3.4%, the “Percentage cytotoxicity at different concentrations” value ([12]; 10nM) was 26.9 ± 3.4% and the “Percentage cytotoxicity at different concentrations” value ([12]; 100nM) was 39.0 ± 2.6%. The “Percentage cytotoxicity at different concentrations” value ([12]; 1µM) was 34.4 ± 3.4%.
